Measurements: publication PMC10866072, “Design, synthesis, molecular modelling and biological evaluation of novel 6-amino-5-cyano-2-thiopyrimidine derivatives as potent anticancer agents against leukemia and apoptotic inducers” (Journal of Enzyme Inhibition and Medicinal Chemistry, 2024)

Key:
CCRF-CEM = format: cell-based; settings: Homo sapiens, one dose 10^-5 M, 48 h
HL-60(TB) = format: cell-based; settings: Homo sapiens, one dose 10^-5 M, 48 h
K-562 = format: cell-based; settings: Homo sapiens, K562, one dose 10^-5 M, 48 h
MOLT-4 = format: cell-based; settings: Homo sapiens, one dose 10^-5 M, 48 h, read-out: % growth
RPMI-8226 = format: cell-based; settings: Homo sapiens, one dose 10^-5 M, 48 h
SR = format: cell-based; settings: Homo sapiens, one dose 10^-5 M, 48 h
A549/ATCC = format: cell-based; settings: Homo sapiens, one dose 10^-5 M, 48 h
EKVX = format: cell-based; settings: Homo sapiens, one dose 10^-5 M, 48 h
HOP-62 = format: cell-based; settings: Homo sapiens, one dose 10^-5 M, 48 h
HOP-92 = format: cell-based; settings: one dose 10^-5 M, 48 h; for % growth at 10 µM: Homo sapiens
NCI-H226 = format: cell-based; settings: one dose 10^-5 M, 48 h; for % growth at 10 µM: Homo sapiens
NCI-H23 = format: cell-based; settings: Homo sapiens, one dose 10^-5 M, 48 h, read-out: % growth
NCI-H460 = format: cell-based; settings: Homo sapiens, one dose 10^-5 M, 48 h, read-out: % growth
NCI-H522 = format: cell-based; settings: Homo sapiens, one dose 10^-5 M, 48 h
HCC-2998 = format: cell-based; settings: Homo sapiens, one dose 10^-5 M, 48 h
HCT-116 = format: cell-based; settings: Homo sapiens, one dose 10^-5 M, 48 h, read-out: % growth
HCT-15 = format: cell-based; settings: Homo sapiens, one dose 10^-5 M, 48 h, read-out: % growth
HT29 = format: cell-based; settings: Homo sapiens, HT-29, one dose 10^-5 M, 48 h
KM12 = format: cell-based; settings: Homo sapiens, one dose 10^-5 M, 48 h
SW-620 = format: cell-based; settings: Homo sapiens, one dose 10^-5 M, 48 h
SF-268 = format: cell-based; settings: Homo sapiens, one dose 10^-5 M, 48 h, read-out: % growth
SF-295 = format: cell-based; settings: Homo sapiens, one dose 10^-5 M, 48 h
SF-539 = format: cell-based; settings: Homo sapiens, one dose 10^-5 M, 48 h
SNB-19 = format: cell-based; settings: Homo sapiens, one dose 10^-5 M, 48 h, read-out: % growth
SNB-75 = format: cell-based; settings: one dose 10^-5 M, 48 h; for % growth at 10 µM: Homo sapiens
U251 = format: cell-based; settings: Homo sapiens, U-251, one dose 10^-5 M, 48 h
LOX IMVI = format: cell-based; settings: Homo sapiens, one dose 10^-5 M, 48 h, read-out: % growth
MALME-3M = format: cell-based; settings: Homo sapiens, one dose 10^-5 M, 48 h
M14 = format: cell-based; settings: Homo sapiens, one dose 10^-5 M, 48 h
MDA-MB-435 = format: cell-based; settings: Homo sapiens, one dose 10^-5 M, 48 h, read-out: % growth
SK-MEL-2 = format: cell-based; settings: Homo sapiens, one dose 10^-5 M, 48 h
SK-MEL-28 = format: cell-based; settings: Homo sapiens, one dose 10^-5 M, 48 h
SK-MEL-5 = format: cell-based; settings: Homo sapiens, one dose 10^-5 M, 48 h, read-out: % growth
UACC-257 = format: cell-based; settings: Homo sapiens, one dose 10^-5 M, 48 h
UACC-62 = format: cell-based; settings: Homo sapiens, one dose 10^-5 M, 48 h
IGROV1 = format: cell-based; settings: Homo sapiens, IGROV-1, one dose 10^-5 M, 48 h, read-out: % growth
OVCAR-3 = format: cell-based; settings: Homo sapiens, one dose 10^-5 M, 48 h
OVCAR-4 = format: cell-based; settings: Homo sapiens, one dose 10^-5 M, 48 h
OVCAR-5 = format: cell-based; settings: Homo sapiens, one dose 10^-5 M, 48 h
OVCAR-8 = format: cell-based; settings: Homo sapiens, one dose 10^-5 M, 48 h
SK-OV-3 = format: cell-based; settings: Homo sapiens, one dose 10^-5 M, 48 h
786-0 = format: cell-based; settings: Homo sapiens, one dose 10^-5 M, 48 h
A498 = format: cell-based; settings: Homo sapiens, one dose 10^-5 M, 48 h
ACHN = format: cell-based; settings: Homo sapiens, one dose 10^-5 M, 48 h
CAKI-1 = format: cell-based; settings: Homo sapiens, CAKI-1, 48 h, one dose 10^-5 M, 48 h
RXF 393 = format: cell-based; settings: Homo sapiens, RXF 393, 48 h, one dose 10^-5 M, 48 h, read-out: % growth
SN12C = format: cell-based, human; settings: Homo sapiens, one dose 10^-5 M, 48 h
TK-10 = format: cell-based; settings: Homo sapiens, one dose 10^-5 M, 48 h
UO-31 = format: cell-based; settings: Homo sapiens, UO-31, 48 h, one dose 10^-5 M, 48 h
PC-3 = format: cell-based; settings: Homo sapiens, one dose 10^-5 M, 48 h
DU-145 = format: cell-based; settings: Homo sapiens, one dose 10^-5 M, 48 h
MCF7 = format: cell-based; settings: Homo sapiens, one dose 10^-5 M, 48 h, read-out: % growth
MDA-MB-231/ATCC = format: cell-based; settings: Homo sapiens, one dose 10^-5 M, 48 h
HS 578T = format: cell-based; settings: one dose 10^-5 M, 48 h, HS 578T; for activity at 10 µM: Homo sapiens, read-out: % growth
T-47D = format: cell-based; settings: Homo sapiens, T47D, one dose 10^-5 M, 48 h, read-out: % growth
MDA-MB-468 = format: cell-based; settings: Homo sapiens, one dose 10^-5 M, 48 h
[1] = test system: full NCI 60 cell lines panel; settings: for activity at 10 µM: Homo sapiens, 60 cell, 48 h, read-out: Mean % growth

Structure (SMILES): N=C(NN=Cc1ccc(Cl)cc1)c1c(N)nc(S)nc1-c1ccc(Cl)cc1 [Compound 4h, 4-amino-6–(4-chlorophenyl)-N'-[(4-chlorophenyl)methylene]-2-mercapto pyrimidine-5-carboximidohydrazide]
- % cell growth at 10 µM (CCRF-CEM): 75.5%
- % growth at 10 µM (HL-60(TB)): 101%
- % growth at 10 µM (K-562): 86%
- activity at 10 µM (MOLT-4): 85.8%
- % growth at 10 µM (RPMI-8226): 83.8%
- percent cell growth at 10 µM (SR): 86.8%
- % growth at 10 µM (A549/ATCC): 93.1%
- % cell growth at 10 µM (EKVX): 75%
- % growth at 10 µM (HOP-62): 95.6%
- % growth at 10 µM (HOP-92): 84.2%
- % growth at 10 µM (NCI-H226): 99%
- activity at 10 µM (NCI-H23): 93.7%
- activity at 10 µM (NCI-H460): 93.7%
- % growth at 10 µM (NCI-H522): 85.4%
- % growth at 10 µM (HCC-2998): 103%
- activity at 10 µM (HCT-116): 86%
- activity at 10 µM (HCT-15): 90.4%
- % growth at 10 µM (HT29): 99%
- % growth at 10 µM (KM12): 91.9%
- % growth at 10 µM (SW-620): 103%
- activity at 10 µM (SF-268): 96%
- % cell growth at 10 µM (SF-295): 90.2%
- % growth at 10 µM (SF-539): 80.4%
- activity at 10 µM (SNB-19): 87.5%
- % growth at 10 µM (SNB-75): 83.5%
- % growth at 10 µM (U251): 94%
- activity at 10 µM (LOX IMVI): 94.3%
- % growth at 10 µM (MALME-3M): 107%
- % growth at 10 µM (M14): 104%
- activity at 10 µM (MDA-MB-435): 98.8%
- % growth at 10 µM (SK-MEL-2): 101%
- % cell growth at 10 µM (SK-MEL-28): 100%
- activity at 10 µM (SK-MEL-5): 97.3%
- percent cell growth at 10 µM (UACC-257): 101%
- % growth at 10 µM (UACC-62): 81.8%
- activity at 10 µM (IGROV1): 78.8%
- % growth at 10 µM (OVCAR-3): 107%
- % growth at 10 µM (OVCAR-4): 83.1%
- percent cell growth at 10 µM (OVCAR-5): 95.4%
- % growth of cells at 10 µM (OVCAR-8): 94.8%
- % growth at 10 µM (SK-OV-3): 77.5%
- % growth at 10 µM (786-0): 98.5%
- % growth at 10 µM (A498): 102%
- % growth at 10 µM (ACHN): 77.2%
- % growth at 10 µM (CAKI-1): 79.4%
- activity at 10 µM (RXF 393): 103%
- % growth at 10 µM (SN12C): 91.8%
- % cell growth at 10 µM (TK-10): 122%
- % cell growth at 10 µM (UO-31): 66.3%
- percent cell growth at 10 µM (PC-3): 79.6%
- % growth at 10 µM (DU-145): 108%
- activity at 10 µM (MCF7): 76.6%
- % growth at 10 µM (MDA-MB-231/ATCC): 69.7%
- activity at 10 µM (HS 578T): 93%
- activity at 10 µM (T-47D): 72.1%
- percent cell growth at 10 µM (MDA-MB-468): 99.3%
- activity at 10 µM [1]: 91%
- activity on all 60 cancer cell lines tested (in words) ([1]; one dose): weak activity

Structure (SMILES): N=C(NN=Cc1ccccc1)c1c(N)nc(S)nc1-c1ccc(Cl)cc1 [Compound 4g, 4-amino-6–(4-chlorophenyl)-2-mercapto-N'-[phenylmethylene]pyrimidine-5-carboximido hydrazide]
- % cell growth at 10 µM (CCRF-CEM): 65%
- % growth at 10 µM (HL-60(TB)): 97%
- % growth at 10 µM (K-562): 52.4%
- activity at 10 µM (MOLT-4): 58.5%
- % growth at 10 µM (RPMI-8226): 51.4%
- percent cell growth at 10 µM (SR): 46.4%
- % growth at 10 µM (A549/ATCC): 31.6%
- % cell growth at 10 µM (EKVX): 52.9%
- % growth at 10 µM (HOP-62): 30.2%
- % growth at 10 µM (HOP-92): -0.44%
- % growth (HOP-92): -0.44%
- % growth at 10 µM (NCI-H226): -0.68%
- % growth (NCI-H226): -0.68%
- activity at 10 µM (NCI-H23): 64.3%
- activity at 10 µM (NCI-H460): 16.5%
- % growth at 10 µM (NCI-H522): 56.4%
- % growth at 10 µM (HCC-2998): 93.1%
- activity at 10 µM (HCT-116): 30.6%
- activity at 10 µM (HCT-15): 53.1%
- % growth at 10 µM (HT29): 78.5%
- % growth at 10 µM (KM12): 62.3%
- % growth at 10 µM (SW-620): 76.3%
- activity at 10 µM (SF-268): 49.3%
- % cell growth at 10 µM (SF-295): 35.6%
- % growth at 10 µM (SF-539): 11.4%
- activity at 10 µM (SNB-19): 59.8%
- % growth at 10 µM (SNB-75): -34.3%
- % growth (SNB-75): -34.30%
- % growth at 10 µM (U251): 13.2%
- activity at 10 µM (LOX IMVI): 22.6%
- % growth at 10 µM (MALME-3M): 52.1%
- % growth at 10 µM (M14): 70.6%
- activity at 10 µM (MDA-MB-435): 77.3%
- % growth at 10 µM (SK-MEL-2): 92.7%
- % cell growth at 10 µM (SK-MEL-28): 88.5%
- activity at 10 µM (SK-MEL-5): 84.9%
- percent cell growth at 10 µM (UACC-257): 92.8%
- % growth at 10 µM (UACC-62): 78.1%
- activity at 10 µM (IGROV1): 62.6%
- % growth at 10 µM (OVCAR-3): 77.7%
- % growth at 10 µM (OVCAR-4): 37.5%
- percent cell growth at 10 µM (OVCAR-5): 80.1%
- % growth of cells at 10 µM (OVCAR-8): 20.4%
- % growth at 10 µM (SK-OV-3): 81%
- % growth at 10 µM (786-0): 41.7%
- % growth at 10 µM (A498): 105%
- % growth at 10 µM (ACHN): 23.3%
- % growth at 10 µM (CAKI-1): 31.2%
- activity at 10 µM (RXF 393): 8.96%
- % growth at 10 µM (SN12C): 73.9%
- % cell growth at 10 µM (TK-10): 93.9%
- % cell growth at 10 µM (UO-31): 29.4%
- percent cell growth at 10 µM (PC-3): 52.6%
- % growth at 10 µM (DU-145): 48.7%
- activity at 10 µM (MCF7): 42.2%
- % growth at 10 µM (MDA-MB-231/ATCC): 1.22%
- activity at 10 µM (HS 578T): -6.98%
- % growth (HS 578T): -6.98%
- activity at 10 µM (T-47D): 49.4%
- percent cell growth at 10 µM (MDA-MB-468): 49.7%
- activity at 10 µM [1]: 50.8%
- % growth values, cell lines with lethal effect ([1]; one dose, range over those cell lines): −0.44%to-34.30
